In the first test the test system is IL-1β production in PMA-differentiated THP-1 cells. The test can be described thus: IL-1β production in PMA-differentiated THP-1 cells stimulated with gramicidin (hTHP-1 assay, 2% fetal bovine serum; Procedures 1-3). In kind it is cell-based, human. Particulars: Homo sapiens, THP-1, Table B3; hTHP-1 assay containing 2% fetal bovine serum, gramicidin stimulation, IL-1β readout; read-out: hTHP-1 IC50. The procedure, abridged: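 PMA-primed THP-1 cells (20 ng/ml PMA, 16-18 h) in RPMI with 2% FBS were pre-incubated with compounds for 1 h, from 100 μM downward in 3-fold steps (0.37% DMSO final), then stimulated with 5 μM gramicidin for 2 h. IL-1β in the supernatant was quantified by HTRF.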
With `CN1CCCC(c2ccc(S(N)(=O)=NC(=O)Nc3c4c(cc5c3CC5)CCC4)c(F)c2)C1` (single isomer, unassigned) [Example 862, (R, R) or (S, R)-2-fluoro-4-(1-methylpiperidin-3-yl)-N′-((2,4,5,6-tetrahydro-1H-cyclobuta[f]inden-3-yl)carbamoyl)benzenesulfonimidamide], the IC50 (commonly the midpoint of a concentration-inhibition curve) fell in the range of 1 to 5 µM.

The test is the same for the next values; noted with them: Table B3; hTHP-1 assay containing 2% fetal bovine serum, gramicidin stimulation, IL-1β readout; read-out: hTHP-1 IC50.
For `NS(=O)(=NC(=O)Nc1c2c(cc3c1CC3)CCC2)c1sc(CN2CCC2)cc1F` (single isomer, unassigned) [Example 844, (S) or (R)-5-(azetidin-1-ylmethyl)-3-fluoro-N′-((2,4,5,6-tetrahydro-1H-cyclobuta[f]inden-3-yl)carbamoyl)thiophene-2-sulfonimidamide], the IC50 was 1 to 5 µM. Same read-out and setting: next, `CC(NC1CCC1)c1ccc(S(N)(=O)=NC(=O)Nc2c3c(cc4c2CC4)CCC3)c(F)c1` (single isomer, unassigned) [Example 845, (R/S, R)-4-(1-(cyclobutylamino)ethyl)-2-fluoro-N′-((2,4,5,6-tetrahydro-1H-cyclobuta[f]inden-3-yl)carbamoyl)benzenesulfonimidamide]: 0.2 to 1 µM; `CC(NC1CCC1)c1ccc(S(N)(=O)=NC(=O)Nc2c3c(cc4c2CC4)CCC3)c(F)c1` (single isomer, unassigned) [Example 847, (R, R) or (S, R) -4-(1-(cyclobutylamino)ethyl)-2-fluoro-N′-((2,4,5,6-tetrahydro-1H-cyclobuta[f]inden-3-yl)carbamoyl)benzenesulfonimidamide]: 0.2 to 1 µM; `CC(NC1CCC1)c1ccc(S(N)(=O)=NC(=O)Nc2c3c(cc4c2CC4)CCC3)c(F)c1` (single isomer, unassigned) [Example 848, (S, R) or (R, R) -4-(1-(cyclobutylamino)ethyl)-2-fluoro-N′-((2,4,5,6-tetrahydro-1H-cyclobula[f]inden-3-yl)carbamoyl)benzenesulfonimidamide]: 0.2 to 1 µM. On to `CC(NC1CCC1)c1ccc(S(N)(=O)=NC(=O)Nc2c3c(cc4c2CC4)CCC3)c(F)c1` (single isomer, unassigned) [Example 849, (S, S) or (R, S) -4-(1-(cyclobutylamino)ethyl)-2-fluoro-N′-((2,4,5,6-tetrahydro-1H-cyclobuta[f]inden-3-yl)carbamoyl)benzenesulfonimidamide], for which the IC50 was 5 to 30 µM.

With `CC(NC1CCC1)c1ccc(S(N)(=O)=NC(=O)Nc2c3c(cc4c2CC4)CCC3)c(F)c1` (single isomer, unassigned) [Example 850, (R, S) or (S, S) -4-(1-(cyclobutylamino)ethyl)-2-fluoro-N′-((2,4,5,6-tetrahydro-1H-cyclobuta[f]inden-3-yl)carbamoyl)benzenesulfonimidamide], the IC50 is 5 to 30 µM. Still for that read-out and setting: next, `COC1CCc2c(csc2S(N)(=O)=NC(=O)Nc2c3c(cc4c2CCC4)CCC3)C1` (single isomer, unassigned) [Example 851, (R, R) or (S, R)-N′-((1,2,3,5,6,7-hexahydro-s-indacen-4-yl)carbamoyl)-5-methoxy-4,5,6,7-tetrahydrobenzo[c]thiophene-1-sulfonimidamide]: 0.2 to 1 µM; `COC1CCc2c(csc2S(N)(=O)=NC(=O)Nc2c3c(cc4c2CCC4)CCC3)C1` (single isomer, unassigned) [Example 852, (S, R) or (R, R)-N′-((1,2,3,5,6,7-hexahydro-s-indacen-4-yl)carbamoyl)-5-methoxy-4,5,6,7-tetrahydrobenzo[c]thiophene-1-sulfonimidamide]: 1 to 5 µM. Still for that read-out and setting: next, `COC1CCc2c(csc2S(N)(=O)=NC(=O)Nc2c3c(cc4c2CCC4)CCC3)C1` (single isomer, unassigned) [Example 853, (R, S) or (S, S)-N′-((1,2,3,5,6,7-hexahydro-s-indacen-4-yl)carbamoyl)-5-methoxy-4,5,6,7-tetrahydrobenzo[c]thiophene-1-sulfonimidamide]: above 30 µM; `COC1CCc2c(csc2S(N)(=O)=NC(=O)Nc2c3c(cc4c2CCC4)CCC3)C1` (single isomer, unassigned) [Example 854, (S, S) or (R, S)-N′-((1,2,3,5,6,7-hexahydro-s-indacen-4-yl)carbamoyl)-5-methoxy-4,5,6,7-tetrahydrobenzo[c]thiophene-1-sulfonimidamide]: 5 to 30 µM; `COC1CCc2csc(S(N)(=O)=NC(=O)Nc3c4c(cc5c3CCC5)CCC4)c2C1` (single isomer, unassigned) [Example 855, (R, S) or (S, S)-N′-((1,2,3,5,6,7-hexahydro-s-indacen-4-yl)carbamoyl)-6-methoxy-4,5,6,7-tetrahydrobenzo[c]thiophene-1-sulfonimidamide]: above 30 µM.

Turning to `COC1CCc2csc(S(N)(=O)=NC(=O)Nc3c4c(cc5c3CCC5)CCC4)c2C1` (single isomer, unassigned) [Example 856, (S, S) or (R, S)-N′-((1,2,3,5,6,7-hexahydro-s-indacen-4-yl)carbamoyl)-6-methoxy-4,5,6,7-tetrahydrobenzo[c]thiophene-1-sulfonimidamide], the half-maximal inhibitory concentration (IC50) was above 30 µM.

Take `COC1CCc2csc(S(N)(=O)=NC(=O)Nc3c4c(cc5c3CCC5)CCC4)c2C1` (single isomer, unassigned) [Example 857, (R, R) or (S, R)-N′-((1,2,3,5,6,7-hexahydro-s-indacen-4-yl)carbamoyl)-6-methoxy-4,5,6,7-tetrahydrobenzo[c]thiophene-1-sulfonimidamide]: the IC50 fell in the range of 1 to 5 µM. For `COC1CCc2csc(S(N)(=O)=NC(=O)Nc3c4c(cc5c3CCC5)CCC4)c2C1` (single isomer, unassigned) [Example 858, (S, R) or (R, R)-N′-((1,2,3,5,6,7-hexahydro-s-indacen-4-yl)carbamoyl)-6-methoxy-4,5,6,7-tetrahydrobenzo[c]thiophene-1-sulfonimidamide], the 50% inhibitory concentration (IC50) lay in the range of 5 to 30 µM. Take `CN1CCCC(c2ccc(S(N)(=O)=NC(=O)Nc3c4c(cc5c3CC5)CCC4)c(F)c2)C1` (single isomer, unassigned) [Example 859, (S, R) or (R, R)-2-fluoro-4-(1-methylpiperidin-3-yl)-N′-((2,4,5,6-tetrahydro-1H-cyclobuta[f]inden-3-yl)carbamoyl)benzenesulfonimidamide]: the half-maximal inhibitory concentration (IC50) lay within 1 to 5 µM.

As for `CN1CCCC(c2ccc(S(N)(=O)=NC(=O)Nc3c4c(cc5c3CC5)CCC4)c(F)c2)C1` (single isomer, unassigned) [Example 860, (R, S) or (S, S)-2-fluoro-4-(1-methylpiperidin-3-yl)-N′-((2,4,5,6-tetrahydro-1H-cyclobuta[f]inden-3-yl)carbamoyl)benzenesulfonimidamide], the IC50 was above 30 µM. Turning to `CN1CCCC(c2ccc(S(N)(=O)=NC(=O)Nc3c4c(cc5c3CC5)CCC4)c(F)c2)C1` (single isomer, unassigned) [Example 861, (S, S) or (R, S)-2-fluoro-4-(1-methylpiperidin-3-yl)-N′-((2,4,5,6-tetrahydro-1H-cyclobuta[f]inden-3-yl)carbamoyl)benzenesulfonimidamide], the IC50 is above 30 µM. `NS(=O)(=NC(=O)Nc1c2c(cc3c1CCC3)CCC2)c1ccc(C2CCN2)cc1` (single isomer, unassigned) [Example 864, (R, S) or (S, S)-4-(azetidin-2-yl)-N′-((1,2,3,5,6,7-hexahydro-5-indacen-4-yl)carbamoyl)benzenesulfonimidamide]: the IC50 lay in the range of 5 to 30 µM. Regarding `NS(=O)(=NC(=O)Nc1c2c(cc3c1CCC3)CCC2)c1ccc(C2CCN2)cc1` (single isomer, unassigned) [Example 865, (S, S) or (R, S)-4-(azetidin-2-yl)-N′-((1,2,3,5,6,7-hexahydro-s-indacen-4-yl)carbamoyl)benzenesulfonimidamide], the IC50 was 5 to 30 µM. Consider `CN[C@H](c1ccc(S(N)(=O)=NC(=O)Nc2c3c(cc4c2CC4)CCC3)s1)C1CC1` (single isomer, unassigned) [Example 866, (S, R) or (R, R)-5-(cyclopropyl(methylamino)methyl)-N′-((2,4,5,6-tetrahydro-1H-cyclobuta[f]inden-3-yl)carbamoyl)thiophene-2-sulfonimidamide], for which the IC50 fell in the range of 0.008 to 0.04 µM. Still for that read-out and setting: as for `CN[C@H](c1ccc(S(N)(=O)=NC(=O)Nc2c3c(cc4c2CC4)CCC3)s1)C1CC1` (single isomer, unassigned) [Example 867, (S, S) or (R, S)-5-(cyclopropyl(methylamino)methyl)-N′-((2,4,5,6-tetrahydro-1H-cyclobuta[f]inden-3-yl)carbamoyl)thiophene-2-sulfonimidamide], the figure is 1 to 5 µM. Take `CN[C@H](c1ccc(S(N)(=O)=NC(=O)Nc2c3c(cc4c2CC4)CCC3)s1)C1CC1` (single isomer, unassigned) [Example 868, (R, R) or (S, R)-5-(cyclopropyl(methylamino)methyl)-N′-((2,4,5,6-tetrahydro-1H-cyclobuta[f]inden-3-yl)carbamoyl)thiophene-2-sulfonimidamide]: the IC50 fell in the range of 0.008 to 0.04 µM. As for `CN[C@H](c1ccc(S(N)(=O)=NC(=O)Nc2c3c(cc4c2CC4)CCC3)s1)C1CC1` (single isomer, unassigned) [Example 869, (R, S) or (S, S)-5-(cyclopropyl(methylamino)methyl)-N′-((2,4,5,6-tetrahydro-1H-cyclobuta[f]inden-3-yl)carbamoyl)thiophene-2-sulfonimidamide], the concentration for half-maximal inhibition (IC50) is 0.2 to 1 µM.

In the case of `CNCc1csc(S(N)(=O)=NC(=O)Nc2c3c(cc4c2CC4)CCC3)c1F` (single isomer, unassigned) [Example 870, (R) or (S) -3-fluoro-4-((methylamino)methyl)-N′-((2,4,5,6-tetrahydro-1H-cyclobuta[f]inden-3-yl)carbamoyl)thiophene-2-sulfonimidamide], the 50% inhibitory concentration (IC50) fell in the range of 0.04 to 0.2 µM.

The values above are taken from patent US20230051589A1, “COMPOUNDS AND COMPOSITIONS FOR TREATING CONDITIONS ASSOCIATED WITH NLRP ACTIVITY” (Novartis AG, priority 2018, published 2023).
